Experimental data: patent US8143256B2, “Cyclic amide and ester pyrazinoylguanidine sodium channel blockers” (Parion Sciences, Inc., priority 2004, dated 2012)

SMILES: N=C(NCCCCN1CCC(CCCC(N)=O)CC1)NC(=O)c1nc(Cl)c(N)nc1N [Example 1, 4-(1-{4-[N′-(3,5-diamino-6-chloropyrazine-2-carbonyl)guanidino]-butyl}piperidin-4-yl)butyramide]
- melting point: 143 to 147 °C
